Measurements: patent US20040006026A1, “Avilamycin derivatives” (Combinature Biopharm AG, priority 2001, published 2004)
Where two headings read alike, the source gives them in different places.

What was measured:
[1] = test system: Bacillus subtilis; experiment: broth microdilution antimicrobial spectrum (NCCLS); format: cell-based
Protocol: (§1) The antimicrobial spectrum of gavibamycin A3 was determined and compared with that of avilamycin A. In this context, the “broth microdilution” method in accordance with the regulations of the national committee for clinical laboratory standards (NCCLS) was used.

[2] = test system: Enterococcus faecalis ATCC29212; experiment: broth microdilution antimicrobial spectrum (NCCLS); format: cell-based
Protocol: as §1

[3] = test system: Enterococcus faecalis H-7-6; experiment: broth microdilution antimicrobial spectrum (NCCLS); format: cell-based
Protocol: as §1

[4] = test system: Staphylococcus aureus ATCC29213; experiment: broth microdilution antimicrobial spectrum (NCCLS); format: cell-based
Protocol: as §1

[5] = test system: Staphylococcus aureus ATCC6538P; experiment: broth microdilution antimicrobial spectrum (NCCLS); format: cell-based
Protocol: as §1

[6] = test system: Staphylococcus aureus ATCC6538; experiment: broth microdilution antimicrobial spectrum (NCCLS); format: cell-based
Protocol: as §1

[7] = test system: Staphylococcus aureus Q48-1.2.1; experiment: broth microdilution antimicrobial spectrum (NCCLS); format: cell-based
Protocol: as §1

[8] = test system: Streptococcus pneumoniae ATCC49619; experiment: broth microdilution antimicrobial spectrum (NCCLS); format: cell-based
Protocol: as §1

[9] = test system: multiresistant Staphylococcus aureus strains; details: Zähner, 1999; cited from earlier work
[10] = test system: various Staphylococcus aureus strains; experiment: preliminary tests / first MIC experiments; format: cell-based
Protocol: as §1
(§2) Furthermore, gavibamycin A3 was tested with regard to its antibiotic effect. […] The non-chlorinated gavibamycin derivatives also have antibiotic activity.

[11] = hydrophilia from Rf values / retention factors of TLC and HPLC analysis; format: physicochemical
Protocol: TLC analysis: Streptomyces viridochromogenes Tü57 and the mutants GW-4 and GW4-AM1 were incubated for three days. The cultures were filtered off, and the filtrate was applied to a solid-phase extraction cartridge (SepPakC18, Waters). The cartridge was eluted with a gradient between 10% and 100% methanol in water. Avilamycin derivatives eluted with the fraction that contains 60-70% methanol. After extraction with ethyl acetate and withdrawal of the solvent, the avilamycin derivatives were dissolved in methanol once again and measured by means of TLC on silica gel plates (silica gel 60 F254, Merck), with methylene chloride/methanol (9:1, v/v) as the solvent. Avilamycin derivatives had been detected after treatment with anisaldehyde/H2SO4.
An analytical HPLC-UV was carried out on a Hewlett Packard 1090 Liquid Chromatograph with a photodiode array detector and a HP-ODS-Hypersil 5 μm, 200×2 mm column. The sequence of the solutions was as follows: Solution A, 0.04M (NH4)2HPO4 pH 7.0 buffer; Solution B, 100% methanol; a non-linear gradient, with 30-62% of Solution B distributed over a period of 25 min at a flow rate of 0.2 mL/min.
as §2

[12] = parenteral administration to a patient, tolerance; format: in vivo
Protocol: 5 g gavibamycin A3 are dissolved in 1 l water for injection purposes, if necessary using a pharmaceutically well tolerated solubility enhancer, at room temperature, and subsequently adjusted to isotonic conditions for injection purposes by adding water-free glucose.
In an average patient, with a body weight of approximately 65 kg, 0.5 mL of this solution is administered, in other words 2.5 mg or approximately […].

Row | Compound | antibiotic activity [1] | antibiotic activity [2] | antibiotic activity [3] | antibiotic activity [4] | antibiotic activity [5] | antibiotic activity [6] | antibiotic activity [7] | antibiotic activity [8] | activity against multiresistant Staphylococcus aureus strains [9] | activity against various Staphylococcus aureus strains compared with avilamycin A [10] | activity against various Staphylococcus aureus strains compared with avilamycin A ([10]; listed as gavibamycin) | hydrophilia compared with avilamycin A [11] | hydrophilia compared with avilamycin A ([11]; listed as gavibamycin) | tolerance of higher dosage ([12]; human, in vivo) | tolerance of the administered dose ([12]; patient approx. 65 kg, 0.5 mL of 5 g/l solution, 2.5 mg, parenteral)
1 | COC[C@H]1O[C@@H](OC2OC[C@@H]3O[C@]4(O[C@H]3[C@H]2OC(=O)C(C)C)O[C@H](C)[C@@](O)(C(C)=O)[C@@H]2OCO[C@H]24)[C@@H](OC)[C@@H](O)[C@@H]1O[C@@H]1O[C@H](C)[C@H](OC)[C@H](O[C@H]2C[C@@]3(C)OC4(C[C@@H](O)[C@H](O[C@H]5C[C@@H](O)[C@H](OC(=O)c6c(C)c(Cl)c(O)c(Cl)c6OC)[C@@H](C)O5)[C@@H](C)O4)O[C@@H]3[C@@H](C)O2)[C@H]1O (some centres unmarked) [avilamycin A, reference compound] | demonstrate antibiotic activity | demonstrate antibiotic activity | demonstrate antibiotic activity | demonstrate antibiotic activity | demonstrate antibiotic activity | demonstrate antibiotic activity | demonstrate antibiotic activity | demonstrate antibiotic activity | excellent activity |  |  |  |  |  | 
2 | COCC1OC(OC2OCC3OC4(OC3C2OC(=O)C(C)C)OC(C)C(O)(C(C)O)C2OCOC24)C(OC)C(O)C1OC1OC(C)C(OC)C(OC2CC3(C)OC4(CC(O)C(OC5CC(O)C(OC(=O)c6c(C)c(Cl)c(O)c(Cl)c6O)C(C)O5)C(C)O4)OC3C(C)O2)C1O (centres unmarked) [gavibamycin A3] | demonstrate antibiotic activity | demonstrate antibiotic activity | demonstrate antibiotic activity | demonstrate antibiotic activity | demonstrate antibiotic activity | demonstrate antibiotic activity | demonstrate antibiotic activity | demonstrate antibiotic activity |  | somewhat stronger activity | somewhat more active than avilamycin A | somewhat more hydrophilic than avilamycin A | much more hydrophilic | toxicologically unproblematic and was well tolerated | well tolerated by the patient
